Values of other authors as cited in US20200022905A1 (priority 2009, published 2020).
Like-named read-outs stand apart in the source and are kept apart here.

What was measured:
[1] = especially by non-smokers
[2] = not given; remark: listed apart in the source

Structure (SMILES): CN1CCCC1c1cccnc1 (stereo not shown) [Nicotine]
- dose after which serious toxic reactions may be experienced [1]: 4 to 8 mg
- time to get to the brain after smoke inhalation: ten to twenty
- ratio of non-ionized form ([2]; pH 7.4): 30%
- ratio of non-ionized form ([2]; pH 8.5): 80%
